Test: xn = mol fraction of the nth substance listed
Conditions: 100 kPa, Liquid; for speed of sound: Frequency=3 MHz, Sing-around technique in a fixed-path interferometer; for mass density: Vibrating tube method

CCCCOCC(C)O (stereo not given) [1-butoxy-2-propanol] + CCCO
Conditions	mass density, 293.15 K [kg/m3]	mass density, 298.15 K [kg/m3]	mass density, 303.15 K [kg/m3]	mass density, 308.15 K [kg/m3]	mass density, 313.15 K [kg/m3]	speed of sound, 293.15 K [m/s]	speed of sound, 298.15 K [m/s]	speed of sound, 303.15 K [m/s]	speed of sound, 308.15 K [m/s]	speed of sound, 313.15 K [m/s]
x1 = 0.0573	812.915	808.937	804.905	800.798	796.651	1230.8	1213.8	1197.1	1180.4	1164.1
x1 = 0.1001	818.814	814.76	810.658	806.519	802.334	1235.7	1218.8	1202	1185.4	1169
x1 = 0.1558	825.901	821.803	817.667	813.493	809.279	1241.5	1224.8	1208	1191.3	1174.7
x1 = 0.2031	831.228	827.109	822.949	818.753	814.513	1246.3	1229.3	1212.5	1195.7	1179.1
x1 = 0.2532	836.415	832.273	828.091	823.867	819.599	1250.7	1233.6	1216.8	1199.8	1183.1
x1 = 0.3033	841.124	836.955	832.749	828.501	824.211	1254.6	1237.5	1220.5	1203.5	1186.7
x1 = 0.4046	849.477	845.264	841.013	836.72	832.382	1261.2	1243.9	1226.8	1209.6	1192.7
x1 = 0.5048	856.464	852.232	847.934	843.623	839.27	1266.3	1248.9	1231.7	1214.4	1197.2
x1 = 0.6055	862.441	858.152	853.82	849.452	845.054	1270.3	1252.9	1235.6	1218.2	1201
x1 = 0.7052	867.521	863.197	858.839	854.443	850.006	1273.2	1255.7	1238.4	1221.1	1203.8
x1 = 0.807	872.037	867.684	863.298	858.874	854.415	1275.7	1258.3	1240.8	1223.4	1206.2
x1 = 0.8546	873.936	869.566	865.165	860.735	856.272	1276.8	1259.3	1241.8	1224.2	1206.6
x1 = 0.9041	875.766	871.424	867.019	862.582	858.113	1277.7	1260.2	1242.6	1225	1207.4
x1 = 0.9537	877.527	873.128	868.704	864.265	859.772	1278.5	1260.8	1243.2	1225.6	1208.1
x1 = 1	879.031	874.632	870.204	865.737	861.241	1279	1260.9	1242.9	1224.9	1207

Reference: the NIST ThermoML archive (doi:10.1016/j.jct.2014.07.019)
